Assay results taken from patent US12589143B2, “Human anti-PD-L1 peptide vaccines and methods of their use” (priority 2019, dated 2026).
Where no end group is shown, it is not given here.

Assays:
PD-1/PD-L1 interaction = biological target: T1, PD-1/PD-L1 interaction (Homo sapiens, UniProt Q9NZQ7); test: PD-1/PD-L1 blockade bioassay (Promega); format: cell-based; conditions: antibodies from immunized rabbits, compared to Nivolumab and Atezolizumab
T1 construct: host or cells: PD-L1 aAPC/CHO-K1 cells and PD-1 effector cells
T1 sequence (Q9NZQ7 19-290): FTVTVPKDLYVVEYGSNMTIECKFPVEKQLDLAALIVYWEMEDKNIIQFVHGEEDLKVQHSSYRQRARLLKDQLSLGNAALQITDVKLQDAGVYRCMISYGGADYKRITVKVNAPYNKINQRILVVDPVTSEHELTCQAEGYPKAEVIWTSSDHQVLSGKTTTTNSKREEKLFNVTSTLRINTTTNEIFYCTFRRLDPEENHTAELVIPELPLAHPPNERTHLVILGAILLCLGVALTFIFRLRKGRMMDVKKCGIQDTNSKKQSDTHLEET
Procedure: The assay was performed following the manufacturer's protocol for the PD-1/PD-L1 blockade bioassay (Promega).
The bioluminescent cell-based PD-1/PD-L1 blockade bioassays provide a good option for rapid screening of therapeutic antibodies or other compounds developed to interfere with PD-1-signaling interaction. PD1/PD-L1 blockade assay was used to test the functionality of 3 anti-PD-L1 antibodies. It was observed that purified polyclonal anti-PD-L1 antibody from the rabbits was able to block PD1/PD-L1 interaction similar to commercial anti-human PD-L1 antibody (FIG. 12). […] In FIG. 12, we show the capacity of each of the PD-L1 vaccines to block the PD-1:PD-L1 interaction as compared to Nivolumab and Atezolizumab. Remarkably only PD-L1 130-147 antibodies were effective
The assay was performed following the manufacturer's protocol for the PD-1/PD-L1 blockade bioassay (Promega). In brief, 4×10^5 aAPC/CHO-K1 or PD-L1 aAPC/CHO-K1 cells were seeded into 96-well plates in RPMI-1640 with 10% FBS. After overnight culturing, the medium was aspirated, and serially diluted purified PD-L1 or PD-1 antibodies, as well as Nivolumab and Atezolizumab antibodies (as reference antibodies) were added. Next, PD-1 effector cells were co-cultured and plate was kept for 5 h at 37° C. in a humidified 5% CO2 incubator. Following mixing with Bio-Glo Reagent, the luminescence was measured with a luminescence plate reader, SpectraMax M3 plate reader (Molecular Devices).

D2F2 WT tumor cells = test: D2F2 WT tumor challenge in Balb/c mice; format: in vivo; conditions: day 21 and day 28
Procedure: Balb/c mice 6-8 weeks old, were immunized with G1 and G2 mice were treated with anti-PD-1 mAb (29F.1A12) (G1) or anti-PD-L1 mAb (10F.9G2) (G2 or with MVF-PD-L1 vaccine constructs [PD-L1(92-110)(G3) PD-L1(130-147)(G4)] prior to tumor challenge. Similarly, G10, G11 and G12 are control groups and were not treated prior to tumor cell challenge. G13, G14 and G15 mice were immunized with 100 ug MVF-HER-2(266-296)+100 ug MVF-HER-2(597-626)+ISA720 per mouse for G13, 100 ug MVF-PD-1 (92-110)+100 ug MVF-HER-2(266-296)+100 ug MVF-HER-2(597-626)+ISA720 per mouse for G14 and 100 ug MVF-PD-L1 (130-147)+100 ug MVF-HER-2(266-296)+100 ug MVF-HER-2(597-626)+ISA720 per mouse for G15. The mice were immunized up to 4 times before tumor challenge. […] All the mice had been monitored at least twice per week, and the tumors were measured with calipers as data indicated.
The tumor volumes were measured by calipers and calculated by formula: (length×width2)/2. […] All the peptides immunized groups of mice are shown with less tumor burden than PBS group and mAbs treated groups as well.
G0, G1 and G2 are control groups, mice in these groups were not treated before tumor cells challenge. Following challenge with D2F2 WT tumor cells, G0 mice were treated with PBS (i.p.) twice per week start from day 2 post challenge served as negative control, G1 and G2 mice were treated with anti-PD-1 mAb (29F.1A12) or anti-PD-L1 mAb (10F.9G2), respectively. Treatment for G1 and G2 mouse groups was also started from day 2 post tumor challenge, with 100 ug administered/mouse twice a week. G1 and G2 served as positive control. […] All the mice had been monitored at least twice per week, and the tumors were measured with calipers as data indicated (FIG. 26).
Mice were immunized with designed peptides vaccines as descripted in FIG. 26, which indicated as 1Y, 2Y, 3Y and 4Y here and with 3 weeks apart. […] And the mice were monitor at least twice per week, and the tumors were measured as shown in the data figures.
The tumor volumes were measured by calipers and calculated by formula: (length×width2)/2. […]

[1] = tested on: HER-2 positive breast cancer; conditions: patients with untreated HER-2 positive breast cancer; pertuzumab added to docetaxel and trastuzumab vs without; cited from earlier work

Substance	blocking of PD-1/PD-L1 interaction (PD-1/PD-L1 interaction)	tumor volume (D2F2 WT tumor cells)	overall survival [1] [months]	progression-free survival [1] [months]
MVF-PD-1(92-110) (KLLSLIKGVIVHRLEGVEDCRFRVTQLPNGRDFHMSV-NH2)	unable to block PD-1 and PD-L1	smaller tumor volume than PBS negative control group and both of mAbs positive control groups	–	–
pertuzumab	–	–	56.5	18.5
